According to patent publication US12233086B2, “Biomarkers for neurogenerative disease” (Neuvivo, Inc., priority 2022, dated 2025):
Where “and” joins values, the source holds several entries; their conditions need not be identical. Identical values can stand only once. Like-named read-outs stand apart in the source and are kept apart here.

How the values were obtained:
TGFB1 = conditions: age≤65, baseline CRP>1.13 mg/L; p=0.02 for month 6
Protocol: (§1) Participants received a total of 20 infusions administered intravenously monthly over 6 cycles during a 6-month double-blind treatment period. […] The start of each cycle was separated by four weeks. Cycle 1 consisted of 30 min infusions over 5 consecutive days. Cycles 2, 3, 4, 5, and 6 each consisted of 3 consecutive daily infusions. ALSFRS-R and vital capacity measurements were performed monthly. The average rate of ALS disease progression (Average DP Rate) at baseline was defined as ALSFRS-R score change per month [(48−ALSFRS-R score at baseline)/months since ALS symptom onset from baseline]]. […] Plasma specimens for biomarker analysis were obtained at the beginning and end of the study (month 6, one month after last dose). All patients had to have completed the study to provide end of study plasma. The units expressed in this Example are hs-CRP units, abbreviated as CRP.

NfL = conditions: 6 months; p=0.09
CD16 = conditions: phase 1 dose ascending study in ALS patients; cited from earlier work
LPS:EGF = conditions: ratio increased over time in placebo
ALS patients [1] = conditions: for decline in VC over 6 months vs placebo (words): CRP>1.13 mg/L
Protocol: as §1
The clinical outcome data evaluated for the current study were the forced vital capacity measurements performed on all patients at baseline and every month until the end of study. Using the patient's age and height with the actual respiratory volume measured, the % predicted vital capacity (VC) was calculated as described.

IL-8 = conditions: age 40-65, CRP>1.13 mg/L
Protocol: (§2) Source of patient specimens: The plasma specimens had been stored at −80° C. since the trial ended and were all evaluated for biomarker levels.

IL-6 = conditions: age 40-65, CRP>1.13 mg/L
Protocol: as §2

TNF-a = conditions: age 40-65, CRP>1.13 mg/L
Protocol: as §2

ALS patients [2] = tested on: ALS patients
HGF = tested on: HGF
Excerpt: (§3) Description of ALS Phase 2A trial and participants: Participants received a total of infusions administered intravenously over 6 cycles during a 25-week double-blind treatment period. There were 4 weeks between the start of each cycle. Cycle 1 consisted of 5 consecutive daily infusions. Cycles 2, 3, 4, 5, and 6 each consisted of 3 consecutive daily infusions. Plasma specimens for biomarker analysis were obtained at the beginning and end of study.
as §2

EGF = tested on: EGF
Excerpt: as §3, §2

IL-18 = tested on: IL-18
Excerpt: as §3, §2

LPS = tested on: LPS
Excerpt: as §3, §2

LBP = tested on: LBP
Excerpt: as §3, §2

Neopterin = tested on: Neopterin
Excerpt: as §3, §2

IL-10 = tested on: IL-10
Excerpt: as §3, §2

sCD163 = tested on: sCD163
Excerpt: as §3, §2

ALS patients [3] = conditions: plasma CRP greater than 1.13 mg/L; rates of ALSFRS-R and vital capacity decline; cited from earlier work
[4] = NP001 2 mg/kg, N 59, age≤65, CRP>1.13 mg/L
[5] = NP001 2 mg/kg, N 64, age≤65, CRP>1.13 mg/L
[6] = NP001 2 mg/kg, N 68, age≤65, CRP>1.13 mg/L
[7] = NP001 2 mg/kg, N 69, age≤65, CRP>1.13 mg/L
[8] = NP001 2 mg/kg, N 72, age≤65, CRP>1.13 mg/L
[9] = NP001 2 mg/kg, N 74, age≤65, CRP>1.13 mg/L
[10] = CRP>1.13 mg/L, listed as sodium chlorite
[11] = CRP>1.13 mg/L, aged 40-65, Wilcoxon p 0.02
[12] = NP001 2 mg/kg, N 14, age 40-65, CRP>1.13 mg/L, six months
[13] = CRP>1.13 mg/L, aged 40-65, Wilcoxon p 0.04

## sodium chlorite [NP001]
TGFB1
  plasma TGFB1 levels over the 6-month trial vs placebo: significantly increased
NfL
  plasma NfL in treated non-progressors compared to progressors: trend towards a loss of plasma NfL
CD16
  monocyte activation marker CD16: dose dependent down regulation
LPS:EGF
  ratio of LPS to EGF, trend over time: decreased over time
ALS patients [1]; 2 mg/kg, age≤65, CRP>1.13 mg/L, placebos 2.1%
  average VC lost per month: 0.75 % VC per month
ALS patients [1]
  decline in VC over 6 months vs placebo (words): improved
ALS patients [1]; listed as sodium chlorite
  decline in VC over 6 months vs placebo (words): significantly slowed
ALS patients [1]; [4]
  % VC change from baseline, Month 6, Mean: Mean: −9.1%
  % VC change from baseline, Month 6, Median: Median: −5.4%
ALS patients [1]; [5]
  % VC change from baseline, Month 5, Mean: Mean: −9.4%
  % VC change from baseline, Month 5, Median: Median: −6.4%
ALS patients [1]; [6]
  % VC change from baseline, Month 4, Mean: Mean: −8.1%
  % VC change from baseline, Month 4, Median: Median: −5.4%
ALS patients [1]; [7]
  % VC change from baseline, Month 3, Mean: Mean: −6.5%
  % VC change from baseline, Month 3, Median: Median: −3.8%
ALS patients [1]; [8]
  % VC change from baseline, Month 2, Mean: Mean: −4.6%
  % VC change from baseline, Month 2, Median: Median: −2.6%
ALS patients [1]; [9]
  % VC change from baseline, Month 1, Mean: Mean: −2.5%
  % VC change from baseline, Month 1, Median: Median: −0.9%
ALS patients [1]; age≤65, CRP<1.13 mg/L, Placebo −13.5%, p=0.83
  mean % VC change from baseline by the end of study, low CRP group: −16.4%
ALS patients [1]; age≤65, CRP>1.13 mg/L, end of six-month study, p=0.05
  slower rate of VC loss compared to placebo: > 64% and 64%
IL-8
  plasma IL-8 values over the six-month study: within the normal range and did not change
IL-6
  plasma IL-6 values over the six-month study: within the normal range and did not change
TNF-a
  plasma TNF-a values over the six-month study: within the normal range and did not change
ALS patients [2]; 2 mg/kg, CRP>1.13 mg/L, age 40-65, placebos lost 4.6 units (p=0.03)
  ALSFRS-R score lost over six months: 1.2 units
ALS patients [2]; 2 mg/kg, age 40-65, CRP>1.13 mg/L, placebo 2 out of 17
  proportion of non-progressors (no decrease in ALSFRS-R score at 6 months): 6 out of 15
ALS patients [2]; CRP>1.13 mg/L
  decline in ALSFRS-R over 6 months vs placebo (words): highly significant difference
ALS patients [2]; CRP>1.13 mg/L, age 40-65, placebos less than 10% (p=0.08)
  non-progression rate (no decrease in ALSFRS-R score at 6 months): 35%
ALS patients [2]; [10]
  decline in ALSFRS-R over 6 months vs placebo (words): significantly slowed
ALS patients [2]; plasma CRP above the median value (1.13 mg/L)
  relationship between drug dose and change in ALSFRS-R score over six months: dose responsive relationship
ALS patients [2]; symptom onset within the past three years, no CRP or age cutoff
  clinical activity in all ALS patients of the phase 2A study: did not show significant clinical activity
HGF; CRP>1.13 mg/L
  plasma HGF change relative to placebo over 6 months: decreased
HGF; [11]
  HGF: % difference between NP001-treated and placebo at 6 months (% median change from baseline): −31.4%
HGF; [12]
  % HGF change from baseline, Mean: −7.6%
  % HGF change from baseline, Median: −14.3%
EGF; CRP>1.13 mg/L
  plasma EGF change relative to placebo over 6 months: increased
EGF; [13]
  EGF: % difference between NP001-treated and placebo at 6 months (% median change from baseline): 32.4%
EGF; [12]
  % EGF change from baseline, Mean: 64.3%
  % EGF change from baseline, Median: 6.5%
IL-18; [11]
  IL-18: % difference between NP001-treated and placebo at 6 months (% median change from baseline): −58.3%
IL-18; [10]
  plasma IL-18 change relative to placebo over 6 months (words): decreased
IL-18; [12]
  % IL-18 change from baseline, Mean: 25.8%
  % IL-18 change from baseline, Median: −2.1%
LPS; [13]
  LPS: % difference between NP001-treated and placebo at 6 months (% median change from baseline): −51.8%
LPS; [10]
  plasma LPS change relative to placebo over 6 months (words): decreased
LPS; [12]
  % LPS change from baseline, Mean: −22.0%
  % LPS change from baseline, Median: −30.4%
LBP; CRP>1.13 mg/L
  plasma LBP change relative to placebo over 6 months: decreased
LBP; CRP>1.13 mg/L, aged 40-65, Wilcoxon p 0.006
  LBP: % difference between NP001-treated and placebo at 6 months (% median change from baseline): −25.9%
LBP; [12]
  % LBP change from baseline, Mean: −1.6%
  % LBP change from baseline, Median: −5.4%
Neopterin; CRP>1.13 mg/L
  plasma neopterin change relative to placebo over 6 months: increased
Neopterin; [13]
  Neopterin: % difference between NP001-treated and placebo at 6 months (% median change from baseline): 18.1%
Neopterin; [12]
  % Neopterin change from baseline, Mean: 13.9%
  % Neopterin change from baseline, Median: 10.8%
IL-10; CRP>1.13 mg/L
  plasma IL-10 change relative to placebo over 6 months: increased
IL-10; [11]
  IL-10: % difference between NP001-treated and placebo at 6 months (% median change from baseline): 18.6%
IL-10; [12]
  % IL-10 change from baseline, Mean: 38.8%
  % IL-10 change from baseline, Median: 0.0%
sCD163; CRP>1.13 mg/L
  plasma sCD163 change relative to placebo over 6 months: decreased
sCD163; [11]
  sCD163: % difference between NP001-treated and placebo at 6 months (% median change from baseline): −19.6%
sCD163; [12]
  % CD163 change from baseline, Mean: −3.5%
  % CD163 change from baseline, Median: −5.9%
ALS patients [3]
  disease progression vs placebo, post hoc evaluation of phase 2 studies: slowed disease progression
